Laboratory results published in article PMC5384962, “First-in-human studies of seletalisib, an orally bioavailable small-molecule PI3Kδ inhibitor for the treatment of immune and inflammatory diseases” (European Journal of Clinical Pharmacology, 2017).

Assays:
[1] = Study-2 safety/tolerability (adverse events)
Procedure: In total, 60 subjects were enrolled into five dose cohorts (n = 12 in each), and subjects were randomised (3:1) to receive seletalisib or placebo. Study-2 included initial dose cohorts of 30, 60 and 90 mg once-daily plus additional dose cohorts of 30 mg twice-daily and 45 mg once-daily.
(§1) Adverse events (AEs), serious AEs (SAEs), routine clinical laboratory parameters, vital signs and ECGs were monitored throughout the study periods and for ≤7 days post-administration of final-dose of seletalisib/placebo. The potential for seletalisib to cause gastrointestinal (GI) tract adverse effects was assessed by careful monitoring of subject reports of AEs such as abdominal pain, bloating, nausea, vomiting and alteration of bowel function (e.g. diarrhoea, constipation or bleeding). A formal safety review was conducted before each dose escalation. In Study-1 (Part-B), the potential for seletalisib to interfere with insulin signalling was assessed by monitoring blood glucose and C-peptide levels as part of the standard laboratory tests and by performance of oral glucose tolerance tests, measuring glucose and C-peptide levels, pre-dose and during exposure in all cohorts.
(§2) In each study, the primary population for analysis was the full analysis set (FAS), which comprised all subjects who had received ≥1 dose of seletalisib or placebo. PK analysis was performed on the PK per-protocol set (PK-PPS), which was a subset of the FAS consisting of subjects with no important protocol deviations likely to affect PK variables who received seletalisib; subjects who received placebo were excluded from this analysis. In Study-1 and Study-2, sample sizes of 57 and 36 subjects, respectively, were considered sufficient to permit assessment of the safety and tolerability of seletalisib and were not based on statistical considerations of power and sample size. In Study-1 (Part-A), a panel size of 15 subjects was selected to achieve good estimates of the PK/PD parameters.

[2] = Study-1 Part-A safety/tolerability (adverse events), single doses; conditions: for Deaths: Study-1 Part-A
Procedure: Study-1 (Part-A), comprised single doses of seletalisib (1, 5, 10 and 15 mg) administered to healthy subjects using an alternating panel approach (Table 1). Panel 1 consisted of 17 subjects and panel 2 of 18 subjects. In each panel subjects were randomised to one of three sequences and received different ascending doses of seletalisib or placebo over three (panel 1) or two (panel 2) periods (Table 1). In the third period of panel 1, a preliminary assessment of food effect was made, all subjects received seletalisib 5 mg 30 min after a high-fat, high-calorie meal.
as §1, §2

For `[O-][n+]1cccc(-c2nc3c(Cl)cccc3cc2[C@@H](Nc2ncnc3cccnc23)C(F)(F)F)c1` [Seletalisib, seletalisib], the Deaths ([1]; Study-2, 30 mg BID) was 0 n (%), the Deaths ([1]; Study-2, 30 mg QD) was 0 n (%) and the Deaths ([1]; Study-2, 45 mg QD) was 0 n (%). For the same molecule, the Deaths ([1]; Study-2, 60 mg QD) was 0 n (%), the Deaths ([1]; Study-2, 90 mg QD) was 0 n (%) and the Deaths ([1]; Study-2, seletalisib total) was 0 n (%). For the same molecule, the “Any AE, number of events […]” value ([1]; human, in vivo) was 169, the “number of rash-related AEs” value ([1]; human, in vivo) was 18 and the “number of subjects with AEs relating to GI disturbance” value ([1]; human, in vivo) was 10. For the same molecule, the “number of subjects with rash-related AEs” value ([1]; human, in vivo) was 12, the “subjects who discontinued the study due to an AE” value ([1]; human, in vivo) was 13.3% and the “subjects who experienced an AE” value ([1]; human, in vivo) was 71.1%. The “subjects with SAEs” value ([1]; human, in vivo) was 4.4%, the subjects with headache ([1]; human, in vivo) was 24.4% and the subjects with rash ([1]; human, in vivo) was 24.4%. For the same molecule, the Abdominal discomfort ([1]; human, in vivo, 14 days) was 2 (4.4) n (%), the Abdominal pain ([1]; human, in vivo, 14 days) was 5 (11.1) n (%) and the “Any AE” value ([1]; human, in vivo, 14 days) was 32 (71.1) n (%). The “Dermatitis, contact” value ([1]; human, in vivo, 14 days) was 4 (8.9) n (%), the Diarrhoea ([1]; human, in vivo, 14 days) was 3 (6.7) n (%) and the “Discontinuations due to AEs” value ([1]; human, in vivo, 14 days) was 6 (13.3) n (%). The “Discontinuations due to AEs, number of events […]” value ([1]; human, in vivo, 14 days) was 6, the Dizziness ([1]; human, in vivo, 14 days) was 5 (11.1) n (%) and the “Drug-related AEs” value ([1]; human, in vivo, 14 days) was 24 (53.3) n (%). For the same molecule, the “Drug-related AEs, number of events […]” value ([1]; human, in vivo, 14 days) was 136, the Dry mouth ([1]; human, in vivo, 14 days) was 2 (4.4) n (%) and the Dysgeusia ([1]; human, in vivo, 14 days) was 5 (11.1) n (%). For the same molecule, the Furuncle ([1]; human, in vivo, 14 days) was 2 (4.4) n (%), the Headache ([1]; human, in vivo, 14 days) was 11 (24.4) n (%) and the Initial insomnia ([1]; human, in vivo, 14 days) was 2 (4.4) n (%). The Nausea ([1]; human, in vivo, 14 days) was 6 (13.3) n (%), the Oropharyngeal pain ([1]; human, in vivo, 14 days) was 6 (13.3) n (%) and the Rash ([1]; human, in vivo, 14 days) was 11 (24.4) n (%). The “Rash, generalised” value ([1]; human, in vivo, 14 days) was 3 (6.7) n (%), the Regurgitation ([1]; human, in vivo, 14 days) was 2 (4.4) n (%) and the “Serious AEs” value ([1]; human, in vivo, 14 days) was 2 (4.4) n (%). For the same molecule, the “Serious AEs, number of events […]” value ([1]; human, in vivo, 14 days) was 2, the “Severe AEs” value ([1]; human, in vivo, 14 days) was 3 (6.7) n (%) and the “Severe AEs, number of events […]” value ([1]; human, in vivo, 14 days) was 3. For the same molecule, the Somnolence ([1]; human, in vivo, 14 days) was 2 (4.4) n (%), the Toothache ([1]; human, in vivo, 14 days) was 2 (4.4) n (%) and the Hypoaesthesia oral ([1]; human, in vivo, po, 14 days) was 2 (4.4) n (%). The “number of AEs relating to GI disturbance” value ([1]; in vivo) was “Thirty-two”, the “number of infection-related AEs” value ([1]; in vivo) was “four” and the Deaths ([2]; seletalisib total) was 0 n (%). For the same molecule, the Deaths ([2]; single dose 1 mg) was 0 n (%), the Deaths ([2]; single dose 5 mg) was 0 n (%) and the Deaths ([2]; single dose 5 mg fed) was 0 n (%). For the same molecule, the Deaths ([2]; single dose 10 mg) was 0 n (%), the Deaths ([2]; single dose 15 mg) was 0 n (%) and the “Any AE” value ([2]; human, in vivo) was 13 (39.4) n (%). The “Discontinuations due to AEs” value ([2]; human, in vivo) was 0 n (%), the “Drug-related AEs” value ([2]; human, in vivo) was 2 (6.1) n (%) and the Headache ([2]; human, in vivo) was 4 (12.1) n (%). The “Serious AEs” value ([2]; human, in vivo) was 0 n (%), the “Severe AEs” value ([2]; human, in vivo) was 0 n (%) and the “number of moderate-intensity AEs” value ([2]; in vivo) was “three”.
